Active and inactive are the calls of the source. No rule for the calls is given here. Bounds are passed on as bounds.

Test [1] concerns the target Serine/threonine-protein kinase Chk2 (Homo sapiens, UniProt O96017).
Description: Inhibition of CHK2 assessed as inhibition of substrate phosphorylation using fluorescent peptide substrate by microplate reader assay
Test [2] concerns the target T1, Serine/threonine-protein kinase Chk1 (Homo sapiens, UniProt O14757).
T1 sequence (O14757 whole entry): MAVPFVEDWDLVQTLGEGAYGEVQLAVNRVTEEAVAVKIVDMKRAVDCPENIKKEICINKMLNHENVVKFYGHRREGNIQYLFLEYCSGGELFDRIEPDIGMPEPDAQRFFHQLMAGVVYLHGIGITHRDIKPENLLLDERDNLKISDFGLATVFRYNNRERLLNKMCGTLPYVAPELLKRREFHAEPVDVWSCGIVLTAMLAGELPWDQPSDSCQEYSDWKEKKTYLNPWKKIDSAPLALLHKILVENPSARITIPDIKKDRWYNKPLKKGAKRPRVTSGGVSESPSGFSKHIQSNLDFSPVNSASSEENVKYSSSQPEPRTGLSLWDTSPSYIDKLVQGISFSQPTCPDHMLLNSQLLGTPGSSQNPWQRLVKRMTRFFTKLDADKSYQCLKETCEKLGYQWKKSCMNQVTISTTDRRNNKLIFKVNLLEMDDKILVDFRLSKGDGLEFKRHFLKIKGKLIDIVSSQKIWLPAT
Description: Inhibition of CHK1 assessed as inhibition of substrate phosphorylation using fluorescent peptide substrate by microplate reader assay

Test [3] deals with Ribosomal protein S6 kinase alpha-3 (Homo sapiens, UniProt P51812).
Sequence of Ribosomal protein S6 kinase alpha-3 (P51812 whole entry): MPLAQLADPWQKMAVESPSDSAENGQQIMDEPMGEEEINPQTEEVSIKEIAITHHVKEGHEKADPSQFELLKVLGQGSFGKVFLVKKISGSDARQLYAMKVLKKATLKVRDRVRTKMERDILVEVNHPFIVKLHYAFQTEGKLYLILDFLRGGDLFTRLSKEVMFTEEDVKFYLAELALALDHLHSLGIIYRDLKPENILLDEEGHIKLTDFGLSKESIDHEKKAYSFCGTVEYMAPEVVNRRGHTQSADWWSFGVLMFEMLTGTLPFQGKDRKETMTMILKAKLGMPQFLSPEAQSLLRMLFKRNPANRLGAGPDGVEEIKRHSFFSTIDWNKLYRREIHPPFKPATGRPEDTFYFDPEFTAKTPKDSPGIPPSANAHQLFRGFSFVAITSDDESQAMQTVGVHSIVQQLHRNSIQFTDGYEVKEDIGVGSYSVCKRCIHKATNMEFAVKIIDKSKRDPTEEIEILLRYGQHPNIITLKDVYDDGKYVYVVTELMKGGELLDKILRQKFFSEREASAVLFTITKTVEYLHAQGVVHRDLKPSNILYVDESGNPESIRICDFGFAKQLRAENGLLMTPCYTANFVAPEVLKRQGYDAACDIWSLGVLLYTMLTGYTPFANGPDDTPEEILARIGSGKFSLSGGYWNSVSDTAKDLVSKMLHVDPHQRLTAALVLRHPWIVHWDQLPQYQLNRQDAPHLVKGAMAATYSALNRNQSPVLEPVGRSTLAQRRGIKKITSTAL
Description: Inhibition of RSK2 assessed as inhibition of substrate phosphorylation using fluorescent peptide substrate by microplate reader assay
Test [4] has as its target T2, Aurora kinase A (Homo sapiens) (UniProt O14965).
T2 sequence (whole entry): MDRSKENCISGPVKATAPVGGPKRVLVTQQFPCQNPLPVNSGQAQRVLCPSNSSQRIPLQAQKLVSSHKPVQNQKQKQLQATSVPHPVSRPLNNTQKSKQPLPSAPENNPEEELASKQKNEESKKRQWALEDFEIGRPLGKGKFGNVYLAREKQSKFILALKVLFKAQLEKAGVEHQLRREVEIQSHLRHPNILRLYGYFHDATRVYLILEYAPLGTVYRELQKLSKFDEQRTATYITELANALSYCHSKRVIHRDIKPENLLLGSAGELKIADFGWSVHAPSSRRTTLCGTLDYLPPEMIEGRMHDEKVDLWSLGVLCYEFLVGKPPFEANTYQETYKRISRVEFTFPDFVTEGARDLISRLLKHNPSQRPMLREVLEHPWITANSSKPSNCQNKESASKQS
Briefly: Inhibition of Aurora kinase A assessed as inhibition of substrate phosphorylation using fluorescent peptide substrate up to 100 uM by microplate reader assay.

Sequence of Serine/threonine-protein kinase Chk2 (O96017 whole entry): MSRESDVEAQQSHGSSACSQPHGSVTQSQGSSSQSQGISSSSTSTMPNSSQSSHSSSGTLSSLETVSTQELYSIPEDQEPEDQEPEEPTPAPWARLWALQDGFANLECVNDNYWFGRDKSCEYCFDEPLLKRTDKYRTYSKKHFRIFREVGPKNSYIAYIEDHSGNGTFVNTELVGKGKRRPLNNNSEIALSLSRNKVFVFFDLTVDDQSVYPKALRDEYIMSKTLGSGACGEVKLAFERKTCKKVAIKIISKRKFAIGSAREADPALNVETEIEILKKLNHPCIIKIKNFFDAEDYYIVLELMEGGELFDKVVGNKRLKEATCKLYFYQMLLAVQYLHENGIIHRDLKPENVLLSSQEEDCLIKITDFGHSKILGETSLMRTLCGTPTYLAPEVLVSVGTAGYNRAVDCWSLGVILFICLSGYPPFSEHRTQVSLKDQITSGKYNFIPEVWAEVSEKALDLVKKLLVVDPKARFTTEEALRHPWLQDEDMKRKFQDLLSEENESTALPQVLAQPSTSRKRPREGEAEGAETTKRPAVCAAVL

As usually defined, the IC50 is the point on the concentration scale where inhibition reaches its midpoint. Low values mean higher potency, high ones lower potency. `N=C(N)N/N=C/c1c(-c2cccc([N+](=O)[O-])c2)nc2sccn12`: the figures for the 50% inhibitory concentration (IC50) in test [1], in test [2] and in test [3] were above 100 µM, above 100 µM and 18.5 µM, respectively.
As for `N=C(N)N/N=C/c1c(-c2cccc([N+](=O)[O-])c2)nc2sc(Cl)cn12`, the concentration for half-maximal inhibition (IC50) was above 100 µM in test [1], above 100 µM in test [2] and 6.03 µM in test [3].
As for `Cc1sc2nc(-c3ccc(Cl)c([N+](=O)[O-])c3)c(/C=N/NC(=N)N)n2c1C`, the IC50 in test [1] is 48.5 µM; in test [2], above 100 µM; in test [3] it was 13.9 µM.
The matching figures for `CCc1cn2c(/C=N/NC(=N)N)c(-c3cc([N+](=O)[O-])c(Cl)cc3Cl)nc2s1`: 59 µM, above 20 µM and 83 µM.
The matching figures for `N=C(N)N/N=C/c1c(-c2ccc([N+](=O)[O-])cc2)nc2sccn12`: above 100 µM, above 100 µM and 5.66 µM.
The matching figures for `CCCc1cn2c(/C=N/NC(=N)N)c(-c3ccc(Cl)c([N+](=O)[O-])c3)nc2s1`: 90.5 µM, above 100 µM and 6.43 µM.
As to `Cc1cn2c(/C=N/NC(=N)N)c(-c3cc([N+](=O)[O-])c(Cl)cc3Cl)nc2s1`, the IC50 is above 100 µM in test [1], above 100 µM in test [2] and 4.53 µM in test [3].
Take `CCCc1cn2c(/C=N/NC(=N)N)c(-c3ccc([N+](=O)[O-])cc3)nc2s1`: the IC50 was above 100 µM in test [1], above 100 µM in test [2] and 20.9 µM in test [3].
On to `COc1cc([N+](=O)[O-])c(OC)cc1-c1nc2sccn2c1/C=N/NC(=N)N`, for which the half-maximal inhibitory concentration (IC50) is 96 µM in test [1], above 100 µM in test [2] and 3.58 µM in test [3].
Turning to `COc1cc([N+](=O)[O-])c(OC)cc1-c1nc2sc(Cl)cn2c1/C=N/NC(=N)N/N=C/c1c(-c2cc(OC)c([N+](=O)[O-])cc2OC)nc2sc(Cl)cn12`, the concentration for half-maximal inhibition (IC50) in test [1] is above 100 µM; in test [2], above 100 µM; in test [3], 11.4 µM.
For the compound `Cc1csc2nc(-c3cccnc3)c(/C=N/NC(=N)N)n12`, the IC50 in test [1] is 34.3 µM; in test [2], above 100 µM; in test [3], 100 µM.
Regarding `Cc1cn2c(/C=N/NC(=N)NN)c(-c3ccc(Cl)c([N+](=O)[O-])c3)nc2s1`, the half-inhibitory concentration (IC50) in test [1] is above 100 µM; in test [2] it was above 100 µM; in test [3], 18 µM.
In the case of `CCCc1cn2c(/C=N/NC(=N)N)c(-c3cccc([N+](=O)[O-])c3)nc2s1`, the half-inhibitory concentration (IC50) in test [1] was 69.5 µM; in test [2], above 100 µM; in test [3], 13.2 µM.
The matching figures for `N=C(N)N/N=C/c1c(-c2ccc(N)cc2)nc2sccn12`: 67.5 µM, above 100 µM and 3 µM.
The matching figures for `Cc1cn2c(/C=N/NC(=N)N)c(-c3ccc(Cl)c([N+](=O)[O-])c3)nc2s1`: 64.8 µM, above 100 µM and 3.76 µM.
The matching figures for `Cc1cn2c(/C=N/NC(=N)N)c(-c3cc(Cl)sc3Cl)nc2s1`: above 100 µM, above 100 µM and 26.5 µM.
Take `N=C(N)N/N=C/c1c(-c2cc([N+](=O)[O-])c(Cl)cc2Cl)nc2sccn12`: the IC50 in test [1] was above 100 µM; in test [2], above 100 µM; in test [3] it was 5.93 µM.
Regarding `Cc1cn2c(/C=N/NC3=NCCN3)c(-c3ccc(Cl)c([N+](=O)[O-])c3)nc2s1`, the IC50 in test [1] is above 100 µM; in test [2], above 100 µM; in test [3], 20.5 µM.
Consider `N=C(N)N/N=C/c1c(-c2ccc(Cl)c([N+](=O)[O-])c2)nc2ccccn12`, for which the 50% inhibitory concentration (IC50) in test [1] was 79 µM; in test [2], above 100 µM; in test [3], 2.89 µM.
As to `Cc1cn2c(/C=N/NC(=N)N)c(-c3cccc([N+](=O)[O-])c3)nc2s1`, the IC50 in test [1] is 59 µM; in test [2], above 100 µM; in test [3] it was 17.5 µM.
For the compound `N=C(N)N/N=C\c1c(-c2cc(F)c(F)cc2F)nc2sccn12`, the inhibition entry in test [4] is “inactive”. The IC50 in test [1] and in test [3] was above 100 µM each time.
